The record followed here is patent US20250340574A1, “MODULATORS OF CYSTIC FIBROSIS TRANSMEMBRANE CONDUCTANCE REGULATOR” (Vertex Pharmaceuticals Incorporated, priority 2022, published 2025).

Data set [1] has as its target T1, CFTR (F508del/MF-HBE cells) (Homo sapiens, UniProt P13569, DEL508-508).
T1 construct: human bronchial epithelial (HBE) cells derived from CF subjects heterozygous for F508del and a minimal function CFTR mutation (F508del/MF-HBE); endogenous in cells; host or cells: Primary human bronchial epithelial cells from CF subjects (F508del/MF genotype), differentiated at an air-liquid interface
Briefly: Ussing chamber assay of CFTR-mediated short-circuit currents, Assay D (single concentration of 1 μM). The format is cell-based. Conditions: with 44 nM potentiator and 18 μM Tezacaftor, 20% human serum; for D activity at 1 μM (%): 18-24 hours. The procedure, abridged:
(§1)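 Short-circuit current was recorded at 37 °C under voltage clamp (0 mV) with amiloride 30 μM apically, forskolin 20 μM activation, then BPO/GlyH-101/inh-172 (20 μM each) to isolate CFTR current. Before recording, corrector exposure lasted 18–24 h with 18 μM tezacaftor, 20% human serum, and 33 nM (dose–response) or 44 nM (1 μM fixed) potentiator, maintained throughout.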

For data set [2] the following is noted: amide bond, 13-membered ring, DMF.
Data set [3] addresses T1, CFTR (F508del/MF-HBE cells). Briefly: Ussing chamber assay of CFTR-mediated short-circuit currents, Assay C (0.026 μM to 25 μM, 6 concentrations). Conditions: with 33 nM potentiator and 18 μM Tezacaftor, 20% human serum; for Emax: read-out: C Max activity (%). Format: cell-based. The procedure, abridged: as §1

“And” between values parts separate entries of the source, which are not always exact repeats. Equal values may be shown once. Read-outs that look alike come from different tables or passages of the source. A value given as a limit tells only on which side of the number the result lay.

T1 sequence (P13569 with tags, fused parts or gaps DEL508-508): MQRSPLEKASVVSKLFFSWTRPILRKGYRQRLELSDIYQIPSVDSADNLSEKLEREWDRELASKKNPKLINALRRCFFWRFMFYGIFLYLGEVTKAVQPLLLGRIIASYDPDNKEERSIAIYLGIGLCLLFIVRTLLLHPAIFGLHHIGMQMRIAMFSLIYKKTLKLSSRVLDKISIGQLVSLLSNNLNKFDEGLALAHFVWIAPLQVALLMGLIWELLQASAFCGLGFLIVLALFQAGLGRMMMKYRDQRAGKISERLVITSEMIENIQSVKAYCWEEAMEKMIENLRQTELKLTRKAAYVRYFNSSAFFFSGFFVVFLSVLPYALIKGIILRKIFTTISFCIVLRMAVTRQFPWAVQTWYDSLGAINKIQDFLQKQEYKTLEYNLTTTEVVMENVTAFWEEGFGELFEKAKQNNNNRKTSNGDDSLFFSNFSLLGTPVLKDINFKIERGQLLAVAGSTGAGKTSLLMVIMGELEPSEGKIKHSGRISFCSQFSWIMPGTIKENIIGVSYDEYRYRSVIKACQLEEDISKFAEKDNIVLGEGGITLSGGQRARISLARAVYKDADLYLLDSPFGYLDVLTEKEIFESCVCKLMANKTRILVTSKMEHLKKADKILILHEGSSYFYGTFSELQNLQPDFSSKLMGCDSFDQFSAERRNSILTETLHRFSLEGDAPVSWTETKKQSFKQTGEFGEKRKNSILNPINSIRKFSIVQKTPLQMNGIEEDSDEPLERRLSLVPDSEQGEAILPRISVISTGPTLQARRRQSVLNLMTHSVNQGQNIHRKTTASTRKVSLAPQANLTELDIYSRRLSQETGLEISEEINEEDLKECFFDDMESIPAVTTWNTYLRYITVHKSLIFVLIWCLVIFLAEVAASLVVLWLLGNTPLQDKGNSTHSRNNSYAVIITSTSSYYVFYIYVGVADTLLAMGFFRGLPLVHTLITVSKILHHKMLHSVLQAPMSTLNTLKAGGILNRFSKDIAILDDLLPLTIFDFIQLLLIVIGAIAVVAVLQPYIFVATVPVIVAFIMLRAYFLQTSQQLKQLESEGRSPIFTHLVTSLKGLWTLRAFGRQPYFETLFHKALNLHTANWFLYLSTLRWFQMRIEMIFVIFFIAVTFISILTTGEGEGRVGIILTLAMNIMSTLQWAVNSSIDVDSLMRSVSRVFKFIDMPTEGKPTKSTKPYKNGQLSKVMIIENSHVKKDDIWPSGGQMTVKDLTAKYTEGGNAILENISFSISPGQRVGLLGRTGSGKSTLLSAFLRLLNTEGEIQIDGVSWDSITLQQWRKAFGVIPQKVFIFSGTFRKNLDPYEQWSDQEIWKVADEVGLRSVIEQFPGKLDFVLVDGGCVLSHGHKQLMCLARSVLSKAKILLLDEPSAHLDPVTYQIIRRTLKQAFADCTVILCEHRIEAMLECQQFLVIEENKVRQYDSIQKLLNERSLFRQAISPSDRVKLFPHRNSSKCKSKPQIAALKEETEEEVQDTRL

The EC50 is the midpoint of the concentration-response curve. On to `Cc1cccc(C)c1-c1cc2nc(n1)NS(=O)(=O)c1cccc(c1)C(=O)N(Cc1cnc3cc(C4(C)CC4)n(C)c3n1)[C@H](CC13CC(C1)C3)CO2` [Compound I-227, (11R)-11-(1-Bicyclo[1.1.1]pentanylmethyl)-6-(2,6-dimethylphenyl)-12-[[5-methyl-6-(1-methylcyclopropyl)pyrrolo[2,3-b]pyrazin-3-yl]methyl]-2,2-dioxo-9-oxa-2λ^6-thia-3,5,12,19-tetrazatricyclo[12.3.1.14,8]nonadeca-1(18),4(19),5,7,14,16-hexaen-13-one], for which the “D activity at 1 μM (%)” value in data set [1] is given as “+++ (+++ is >60%)”. In addition, the ring closure, yield after HPLC in data set [2] (from Cc1cccc(C)c1-c1cc(OC[C@@H](CC23CC(C2)C3)NCc2cnc3cc(C4(C)CC4)n(C)c3n2)nc(NS(=O)(=O)c2cccc(C(=O)O)c2)n1, CDMT/NMM, 25.0 °C) stood at 66%. Further, the Emax in data set [3] (18-24 hours) is more than 60%. In data set [3], the half-maximal effective concentration (EC50) is less than 1 µM.
Regarding `Cc1cccc(C)c1-c1cc2nc(n1)NS(=O)(=O)c1cccc(c1)C(=O)N(Cc1cnc3oc(C4CC4)cc3n1)[C@H](C=C1CCC1)CO2` [Compound I-154, (11R)-11-(cyclobutylidenemethyl)-12-[(6-cyclopropylfuro[2,3-b]pyrazin-2-yl)methyl]-6-(2,6-dimethylphenyl)-2,2-dioxo-9-oxa-2λ^6-thia-3,5,12,19-tetrazatricyclo[12.3.1.14,8]nonadeca-1(18),4(19),5,7,14,16-hexaen-13-one], the “D activity at 1 μM (%)” value in data set [1] is recorded as “+++ (+++ is >60%)”. In data set [2] (from Cc1cccc(C)c1-c1cc(OC[C@@H](C=C2CCC2)NCc2cnc3oc(C4CC4)cc3n2)nc(NS(=O)(=O)c2cccc(C(=O)O)c2)n1, CDMT/NMM, 25.1 mM, 2.08 h), the ring closure, yield after HPLC is 14%.
As to `Cc1cccc(C)c1-c1cc2nc(n1)NS(=O)(=O)c1cccc(c1)C(=O)N(Cc1cnc3c(n1)CN(C(C)C)C3=O)[C@H](CC13CC(C1)C3)CO2` [III-16, (11R)-11-(1-bicyclo[1.1.1]pentanylmethyl)-6-(2,6-dimethylphenyl)-12-[(6-isopropyl-7-oxo-5H-pyrrolo[3,4-b]pyrazin-3-yl)methyl]-2,2-dioxo-9-oxa-2λ^6-thia-3,5,12,19-tetrazatricyclo[12.3.1.14,8]nonadeca-1(18),4(19),5,7,14,16-hexaen-13-one], in data set [1], the “D activity at 1 μM (%)” value is listed as “+++ (+++ is >60%)”. The compound also displayed a ring closure, yield after HPLC in data set [2] (from Cc1cccc(C)c1-c1cc(OC[C@@H](CC23CC(C2)C3)NCc2cnc3c(n2)CN(C(C)C)C3=O)nc(NS(=O)(=O)c2cccc(C(=O)O)c2)n1, CDMT/NMM, 13.0 mM, 16.5 h) of 39%.
For `Cc1cccc(C)c1-c1cc2nc(n1)NS(=O)(=O)c1cccc(c1)C(=O)N(Cc1cnc3cc(C(C)(C)C)n(C)c3n1)[C@H](CC1(C)CC1)CO2` [Compound I-187, (11R)-12-[(6-tert-Butyl-5-methyl-pyrrolo[2,3-b]pyrazin-3-yl)methyl]-6-(2,6-dimethylphenyl)-11-[(1-methylcyclopropyl)methyl]-2,2-dioxo-9-oxa-2λ^6-thia-3,5,12,19-tetrazatricyclo[12.3.1.14,8]nonadeca-1(18),4(19),5,7,14,16-hexaen-13-one], in data set [1], the “D activity at 1 μM (%)” value is “+++ (+++ is >60%)”. Moreover, the ring closure, yield after HPLC in data set [2] (from Cc1cccc(C)c1-c1cc(OC[C@@H](CC2(C)CC2)NCc2cnc3cc(C(C)(C)C)n(C)c3n2)nc(NS(=O)(=O)c2cccc(C(=O)O)c2)n1, CDMT/NMM, 22.5 mM, 4.0 h) turned out to be 41%. Further, the Emax in data set [3] (18-24 hours) was more than 60%. In addition, the concentration for a half-maximal effect (EC50) in data set [3] is less than 1 µM.
As for `Cc1cccc(C)c1-c1cc2nc(n1)NS(=O)(=O)c1cccc(c1)C(=O)N(Cc1cnc3oc(C(C)(C)C)cc3n1)[C@H](C[C@H]1CCCCO1)CO2` [Compound I-220, (11R)-12-[(6-tert-Butylfuro[2,3-b]pyrazin-2-yl)methyl]-6-(2,6-dimethylphenyl)-2,2-dioxo-11-[[(2R)-tetrahydropyran-2-yl]methyl]-9-oxa-2λ^6-thia-3,5,12,19-tetrazatricyclo[12.3.1.14,8]nonadeca-1(18),4(19),5,7,14,16-hexaen-13-one], in data set [1], the “D activity at 1 μM (%)” value is “+++ (+++ is >60%)”. This compound returned a ring closure, yield after HPLC in data set [2] (from Cc1cccc(C)c1-c1cc(OC[C@@H](C[C@H]2CCCCO2)NCc2cnc3oc(C(C)(C)C)cc3n2)nc(NS(=O)(=O)c2cccc(C(=O)O)c2)n1, CDMT/DIEA, 11.6 mM, 48.0 h) of 70%.
For the compound `Cc1cccc(COC(C)C)c1-c1nc2nc(c1C)OC[C@@H](CC(C)(C)C)N(Cc1cnc3oc(C(C)(C)C)cc3n1)C(=O)c1cccc(c1)S(=O)(=O)N2` (single isomer, unassigned) [IV-40], the “D act. at 1 μM (%)” value in data set [1] is on record as “+++ (+++ is >60%)”. Further, the ring closure, yield after HPLC in data set [2] (from Cc1cccc(COC(C)C)c1-c1nc(NS(=O)(=O)c2cccc(C(=O)O)c2)nc(OC[C@@H](CC(C)(C)C)NCc2cnc3oc(C(C)(C)C)cc3n2)c1C, CDMT/NMM, 15.1 mM, 25.0 °C, 60.0 h) was found to be 23%. Besides, in data set [3], the EC50 is less than 1 µM and the Emax was more than 60%.
Regarding `Cc1cccc(C)c1-c1cc2nc(n1)NS(=O)(=O)c1cccc(c1)C(=O)N(Cc1ncc3cc(C(C)(C)C)n(C)c3n1)[C@H](CC13CC(C1)C3)CO2` [IV-35, (11R)-11-(1-bicyclo[1.1.1]pentanylmethyl)-12-[(6-tert-butyl-7-methyl-pyrrolo[2,3-d]pyrimidin-2-yl)methyl]-6-(2,6-dimethylphenyl)-2,2-dioxo-9-oxa-2λ^6-thia-3,5,12,19-tetrazatricyclo[12.3.1.14,8]nonadeca-1(18),4(19),5,7,14,16-hexaen-13-one], the “D act. at 1 μM (%)” value in data set [1] is recorded as “+++ (+++ is >60%)”. In data set [2] (from Cc1cccc(C)c1-c1cc(OC[C@@H](CC23CC(C2)C3)NCc2ncc3cc(C(C)(C)C)n(C)c3n2)nc(NS(=O)(=O)c2cccc(C(=O)O)c2)n1, CDMT/NMM, 9.95 mM, 25.0 °C, 16.5 h), this compound yielded a ring closure, yield after HPLC of 27%. Moreover, in data set [3], the EC50 is less than 1 µM and the Emax was more than 60%.
As to `COc1c2nc(nc1-c1c(C)cccc1C)NS(=O)(=O)c1cccc(c1)C(=O)N(Cc1cnc3oc(C(C)C)cc3n1)[C@H](CC(C)(C)C)CC2` [Compound I-157, (11S)-6-(2,6-Dimethylphenyl)-11-(2,2-dimethylpropyl)-12-[(6-isopropylfuro[2,3-b]pyrazin-2-yl)methyl]-7-methoxy-2,2-dioxo-2λ^6-thia-3,5,12,19-tetrazatricyclo[12.3.1.14,8]nonadeca-1(18),4(19),5,7,14,16-hexaen-13-one], the “D activity at 1 μM (%)” value in data set [1] is on record as “+++ (+++ is >60%)”. Further, the ring closure, yield after HPLC in data set [2] (from COc1c(CC[C@@H](CC(C)(C)C)NCc2cnc3oc(C(C)C)cc3n2)nc(NS(=O)(=O)c2cccc(C(=O)O)c2)nc1-c1c(C)cccc1C, CDMT/NMM, 11.0 mM, 3.5 h) stood at 62%.
Take `CCC(CC)[C@@H]1COc2cc(-c3c(C)cccc3C)nc(n2)NS(=O)(=O)c2cccc(c2)C(=O)N1Cc1cnc2oc(C(C)(C)C)cc2n1` [IV-48, (11R)-12-[(6-tert-butylfuro[2,3-b]pyrazin-2-yl)methyl]-6-(2,6-dimethylphenyl)-11-(1-ethylpropyl)-2,2-dioxo-9-oxa-2λ^6-thia-3,5,12,19-tetrazatricyclo[12.3.1.14,8]nonadeca-1(18),4,6,8(19),14,16-hexaen-13-one]: the “D act. at 1 μM (%)” value in data set [1] is on record as “+++ (+++ is >60%)”. In addition, in data set [2] (from CCC(CC)[C@H](COc1cc(-c2c(C)cccc2C)nc(NS(=O)(=O)c2cccc(C(=O)O)c2)n1)NCc1cnc2oc(C(C)(C)C)cc2n1, CDMT/NMM, 11.1 mM, 25.0 °C, 18.0 h), the ring closure, yield after HPLC was found to be 52%. Besides, in data set [3], the EC50 was in the range of 1 to 3 µM and the Emax is more than 60%.
For the compound `Cc1cccc(C)c1-c1cc2nc(n1)NS(=O)(=O)c1cccc(c1)C(=O)N(Cc1cnc3oc(C(C)C)cc3n1)[C@H](CC1CCCOC1)CO2` (single isomer, unassigned) [Compound I-66], in data set [1], the “D activity at 1 μM (%)” value is “+++ (+++ is >60%)”. For the same compound, in data set [2] (from Cc1cccc(C)c1-c1cc(OC[C@@H](CC2CCCOC2)NCc2cnc3oc(C(C)C)cc3n2)nc(NS(=O)(=O)c2cccc(C(=O)O)c2)n1, CDMT/NMM, 11.8 mM, 72.5 h), the ring closure, yield after HPLC was 17% and 20%.
As for `Cc1cccc(C)c1-c1cc2nc(n1)NS(=O)(=O)c1cccc(c1)C(=O)N(Cc1cnc3nc(C(C)C)oc3n1)[C@H](CC1(C)CC1)CO2` [Compound I-159, (11R)-6-(2,6-Dimethylphenyl)-12-[(2-isopropyloxazolo[4,5-b]pyrazin-6-yl)methyl]-11-[(I-methylcyclopropyl)methyl]-2,2-dioxo-9-oxa-2λ^6-thia-3,5,12,19-tetrazatricyclo[12.3.1.14,8]nonadeca-1(18),4(19),5,7,14,16-hexaen-13-one], in data set [1], the “D activity at 1 μM (%)” value is reported as “+++ (+++ is >60%)”. Also, the ring closure, yield after HPLC in data set [2] (from Cc1cccc(C)c1-c1cc(OC[C@@H](CC2(C)CC2)NCc2cnc3nc(C(C)C)oc3n2)nc(NS(=O)(=O)c2cccc(C(=O)O)c2)n1, CDMT/NMM, 26.6 mM, 2.08 h) came to 26%.
